# Test results from ChEMBL document CHEMBL1201862, “PubChem BioAssay data set” (2004).
# Activity calls are given as the source filed them.
# Experiments:
# Protein skinhead-1 = target: T1, Protein skinhead-1 (Caenorhabditis elegans, UniProt P34707); format: functional
# T1 sequence (P34707 whole entry): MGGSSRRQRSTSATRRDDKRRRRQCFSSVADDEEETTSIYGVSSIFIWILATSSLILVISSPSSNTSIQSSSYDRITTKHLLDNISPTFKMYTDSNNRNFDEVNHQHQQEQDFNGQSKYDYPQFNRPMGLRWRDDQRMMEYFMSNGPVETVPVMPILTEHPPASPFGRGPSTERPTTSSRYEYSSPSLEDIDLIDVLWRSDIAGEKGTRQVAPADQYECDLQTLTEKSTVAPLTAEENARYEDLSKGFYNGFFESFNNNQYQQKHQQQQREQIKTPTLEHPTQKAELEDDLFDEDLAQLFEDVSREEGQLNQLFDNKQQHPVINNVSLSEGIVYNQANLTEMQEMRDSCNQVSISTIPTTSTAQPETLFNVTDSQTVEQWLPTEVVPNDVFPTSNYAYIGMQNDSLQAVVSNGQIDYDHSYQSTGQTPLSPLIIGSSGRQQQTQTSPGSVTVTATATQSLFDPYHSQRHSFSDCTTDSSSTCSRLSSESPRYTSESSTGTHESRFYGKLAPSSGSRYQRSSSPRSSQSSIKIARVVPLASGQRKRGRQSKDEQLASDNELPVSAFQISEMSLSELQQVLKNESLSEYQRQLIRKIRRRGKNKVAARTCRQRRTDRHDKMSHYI
# [1] = target: T2, Oxysterols receptor LXR-beta (Homo sapiens, UniProt P55055); format: functional, cell-based;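 further: agonist activity at LXR measured by a cell-based luminescence readout across a dose range, run as a counterscreen for daf-12 agonists; HEK293 cells with Gal4-LXR fusion and GAL4-driven luciferase reporter; potency for activation of Gal4-LXR reporter so compounds are agonists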
# T2 sequence (P55055 whole entry): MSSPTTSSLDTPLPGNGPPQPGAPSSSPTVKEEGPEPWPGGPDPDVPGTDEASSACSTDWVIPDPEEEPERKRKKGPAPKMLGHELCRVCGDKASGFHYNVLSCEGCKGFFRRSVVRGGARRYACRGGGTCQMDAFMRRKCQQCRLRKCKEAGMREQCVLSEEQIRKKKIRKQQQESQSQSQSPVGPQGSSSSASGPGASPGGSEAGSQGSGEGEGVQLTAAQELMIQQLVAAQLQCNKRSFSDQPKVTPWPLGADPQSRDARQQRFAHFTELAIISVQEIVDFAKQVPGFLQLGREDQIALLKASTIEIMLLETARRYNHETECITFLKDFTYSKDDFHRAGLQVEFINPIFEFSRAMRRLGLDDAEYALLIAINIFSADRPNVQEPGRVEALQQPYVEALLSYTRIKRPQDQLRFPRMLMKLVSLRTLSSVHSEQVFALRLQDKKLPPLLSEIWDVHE
# [2] = target: T3, COUP transcription factor 2 (Homo sapiens, UniProt P24468); test: Luminescence-based cell-based high throughput dose response assay to identify inhibitors of COUP-TFII (NR2F2).; format: functional;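 further: HEK293 cells transiently cotransfected with COUP-TFII expression vector and reporter; luciferase reporter luminescence driven by COUP-TFII from the pX2-168 reporter plasmid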
# T3 sequence (P24468 whole entry): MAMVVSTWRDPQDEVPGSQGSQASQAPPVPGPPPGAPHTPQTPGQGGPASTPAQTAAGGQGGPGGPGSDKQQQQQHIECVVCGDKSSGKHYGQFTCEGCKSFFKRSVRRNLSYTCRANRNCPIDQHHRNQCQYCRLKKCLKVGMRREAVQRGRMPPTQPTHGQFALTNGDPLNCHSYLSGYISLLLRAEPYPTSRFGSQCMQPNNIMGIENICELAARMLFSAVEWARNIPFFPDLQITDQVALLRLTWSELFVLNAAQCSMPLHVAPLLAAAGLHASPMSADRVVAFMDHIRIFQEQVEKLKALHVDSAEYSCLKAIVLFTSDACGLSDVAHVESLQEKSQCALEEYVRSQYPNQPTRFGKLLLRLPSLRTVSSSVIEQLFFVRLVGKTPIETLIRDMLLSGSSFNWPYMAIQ
# Vero = test: cells; format: functional; conditions: Chlorocebus sabaeus
# [3] = intracellular Trypanosoma cruzi inhibitors in host cells – cell-based, plate reader, cherry-pick samples, set 3, dose response (AID 651818); format: functional;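 further: compounds incubated with infected cells for about four days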
# [4] = target: T4, Replicative DNA helicase DnaB (Mycobacterium tuberculosis, UniProt P9WMR3); test: DnaB intein splicing inhibitors, dose response, biochemical, cell-free fluorescence (AID 449749); format: functional
# T4 sequence (P9WMR3 whole entry): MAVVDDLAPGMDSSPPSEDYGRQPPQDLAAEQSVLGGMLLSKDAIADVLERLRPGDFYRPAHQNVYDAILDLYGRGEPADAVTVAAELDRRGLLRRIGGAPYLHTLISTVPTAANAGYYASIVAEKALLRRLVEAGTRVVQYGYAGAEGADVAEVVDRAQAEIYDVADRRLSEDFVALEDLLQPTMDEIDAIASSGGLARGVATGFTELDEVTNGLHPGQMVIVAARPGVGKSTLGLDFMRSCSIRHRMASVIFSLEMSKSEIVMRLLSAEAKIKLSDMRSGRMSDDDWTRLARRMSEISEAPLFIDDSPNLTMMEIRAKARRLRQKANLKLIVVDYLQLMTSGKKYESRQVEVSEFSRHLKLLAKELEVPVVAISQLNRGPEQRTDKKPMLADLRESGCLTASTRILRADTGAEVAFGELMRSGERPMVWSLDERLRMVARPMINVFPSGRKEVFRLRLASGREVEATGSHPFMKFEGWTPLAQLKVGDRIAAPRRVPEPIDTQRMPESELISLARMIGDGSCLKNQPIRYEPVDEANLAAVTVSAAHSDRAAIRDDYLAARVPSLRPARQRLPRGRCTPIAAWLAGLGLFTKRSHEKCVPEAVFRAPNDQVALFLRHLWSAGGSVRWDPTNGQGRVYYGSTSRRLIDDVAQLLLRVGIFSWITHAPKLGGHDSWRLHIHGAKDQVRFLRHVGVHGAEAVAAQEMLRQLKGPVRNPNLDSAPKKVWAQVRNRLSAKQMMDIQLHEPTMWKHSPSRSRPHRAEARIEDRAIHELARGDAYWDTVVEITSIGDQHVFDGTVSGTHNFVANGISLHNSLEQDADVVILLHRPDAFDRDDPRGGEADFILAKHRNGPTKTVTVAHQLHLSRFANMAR
# Protein RecA = target: T5, Protein RecA (Mycobacterium tuberculosis, UniProt P9WHJ3); test: Fluorescence Cell-Free Homogeneous Dose Retest to Identify Inhibitors of RecA-Intein Splicing Activity. [Related pubchem assays (depositor defined):AID2097, AID2223, AID489010, AID492950]; format: functional
# T5 sequence (P9WHJ3 whole entry): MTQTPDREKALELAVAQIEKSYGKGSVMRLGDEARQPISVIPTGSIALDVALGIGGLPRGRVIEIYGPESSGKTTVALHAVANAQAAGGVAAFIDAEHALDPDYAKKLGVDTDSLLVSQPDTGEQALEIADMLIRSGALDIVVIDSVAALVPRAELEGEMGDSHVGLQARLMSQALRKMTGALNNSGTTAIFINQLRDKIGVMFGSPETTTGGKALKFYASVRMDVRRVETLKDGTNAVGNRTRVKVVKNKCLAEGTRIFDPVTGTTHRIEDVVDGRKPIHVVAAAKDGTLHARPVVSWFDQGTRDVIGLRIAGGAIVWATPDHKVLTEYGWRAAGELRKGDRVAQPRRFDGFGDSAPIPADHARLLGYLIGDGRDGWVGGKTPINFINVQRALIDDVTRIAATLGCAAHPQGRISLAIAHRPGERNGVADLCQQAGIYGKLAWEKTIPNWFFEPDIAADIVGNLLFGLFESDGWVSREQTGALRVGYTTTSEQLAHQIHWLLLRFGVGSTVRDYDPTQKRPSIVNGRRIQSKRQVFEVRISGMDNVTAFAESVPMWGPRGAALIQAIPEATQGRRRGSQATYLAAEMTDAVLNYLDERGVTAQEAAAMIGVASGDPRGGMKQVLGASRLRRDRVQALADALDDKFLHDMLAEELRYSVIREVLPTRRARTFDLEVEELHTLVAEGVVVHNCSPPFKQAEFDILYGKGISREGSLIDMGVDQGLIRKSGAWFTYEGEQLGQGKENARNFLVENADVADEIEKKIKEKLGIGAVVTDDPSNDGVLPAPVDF
# [5] = target: T6, Tyrosyl-DNA phosphodiesterase 2 (Homo sapiens, UniProt O95551); test: human TDP2 enzyme inhibitors, dose response, biochemical, epi absorbance, IC50 (AID 743297)
# T6 sequence (O95551 whole entry): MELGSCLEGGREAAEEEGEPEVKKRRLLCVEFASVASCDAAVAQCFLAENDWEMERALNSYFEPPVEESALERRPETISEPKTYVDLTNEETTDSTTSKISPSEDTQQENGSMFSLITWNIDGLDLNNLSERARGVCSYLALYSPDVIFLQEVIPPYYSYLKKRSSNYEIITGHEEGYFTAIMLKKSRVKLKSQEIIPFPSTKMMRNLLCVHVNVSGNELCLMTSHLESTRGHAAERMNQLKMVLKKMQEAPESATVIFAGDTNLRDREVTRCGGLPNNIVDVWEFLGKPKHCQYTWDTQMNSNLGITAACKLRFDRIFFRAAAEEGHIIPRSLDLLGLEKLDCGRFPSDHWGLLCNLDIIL
# Paired box protein Pax-8 = Paired box protein Pax-8 (Homo sapiens, UniProt Q06710); test: inhibitors of PAX8-driven TPO luciferase reporter, dose response, RMG-I cells, cherry-pick (AID 687027); format: functional, cell-based;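 further: luciferase reporter driven by Pax8 target thyroperoxidase promoter measured by SteadyGlo luminescence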
# [6] = cytotoxicity in OVCAR8 ovarian cancer cells, dose response, PAX8 project, cell-based, plate reader, dry powder samples (AID 743197); format: functional; conditions: OVCAR-8
# [7] = P. falciparum Dd2 growth inhibitors, dose response, SYBR Green, cherry-picked samples (AID 1159567); format: functional, cell-based
# [8] = miR-122 activators in hepatoma reporter cells, dose response, cell-based, Huh7 psiCHECK-miR122, Renilla luciferase, cherry-picked (AID 651956); format: functional;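 further: huh7 hepatoma cells stably carrying a psiCHECK-2 miR-122 sensor plasmid; renilla luciferase signal reporting endogenous miR-122 activity after 48 h compound exposure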
# Albumin = Albumin (Bos taurus, UniProt P02769); test: Counterscreen for inhibitors of T-cell receptor (TCR)-CD3 interaction: Fluorescence-based biochemical high throughput dose response assay to identify inhibitors of T-cell receptor (TCR)-CD3 interaction using a TAMRA-labeled BSA probe.; format: functional
# [9] = THP-1 cell cytotoxicity, dose response, cytotoxicity control for Vif-APOBEC3G degradation inhibitor project, THP-1 cells (AID 1117359); format: functional; conditions: Human immunodeficiency virus 1, THP-1
# SN12K1 = test: cells; format: functional; conditions: Homo sapiens, SN12K1
# P388 = test: cells; format: functional; conditions: Mus musculus
# P388/ADR = test: cells; format: functional; conditions: Mus musculus
# HEK293 = test: inhibitors of LMP1-driven NF-kB reporter, dose response, cell-based, HEK293, luciferase, cherry-pick (AID 588343); format: functional; conditions: Homo sapiens
# [10] = NIH-3T3 fibroblast cytotoxicity, dose response, cytotoxicity control, cell-based, fluorescence, Alamar Blue, secondary assay (AID 2327); format: functional;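 further: NIH-3T3 mouse fibroblasts cultured with fluconazole at 8 µg/mL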
# Fatty acid synthase [11] = target: T7, Fatty acid synthase (Homo sapiens, UniProt P49327); test: FAS thioesterase domain inhibitors, dose response, biochemical, kinetic fluorescence intensity (AID 624326); format: functional;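 further: rate of fluorescence rise from hydrolysis of a fluorogenic O-methyl fluorescein ester substrate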
# [12] = C. albicans growth with fluconazole, confirmation, fluorescence, retest (AID 2467); format: functional, cell-based
# [13] = tested on: Streptococcus sp. 'group A'; test: growth inhibition of control SK(-) GAS strain, dose response, counter-screen for streptokinase expression inhibitor project, luminescence, kanamycin, BacTiterGlo, confirmation (AID 1900); format: functional, organism-based
# Streptococcus = test: Group A Streptococcus viability loss, dose response, counter-screen for streptokinase expression inhibitor project, luminescence, BacTiterGlo (AID 1915); format: functional, organism-based;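 further: potency for reduction of bacterial viability or growth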
# Fatty acid synthase [14] = target: T7, Fatty acid synthase; test: FAS thioesterase domain inhibitors, dose response, biochemical, endpoint fluorescence intensity, uHTS hits (AID 624327); format: functional;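 further: fluorescence from hydrolysis of an O-methyl fluorescein acyl ester substrate by the enzyme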
# Albumin, sequence (P02769 whole entry): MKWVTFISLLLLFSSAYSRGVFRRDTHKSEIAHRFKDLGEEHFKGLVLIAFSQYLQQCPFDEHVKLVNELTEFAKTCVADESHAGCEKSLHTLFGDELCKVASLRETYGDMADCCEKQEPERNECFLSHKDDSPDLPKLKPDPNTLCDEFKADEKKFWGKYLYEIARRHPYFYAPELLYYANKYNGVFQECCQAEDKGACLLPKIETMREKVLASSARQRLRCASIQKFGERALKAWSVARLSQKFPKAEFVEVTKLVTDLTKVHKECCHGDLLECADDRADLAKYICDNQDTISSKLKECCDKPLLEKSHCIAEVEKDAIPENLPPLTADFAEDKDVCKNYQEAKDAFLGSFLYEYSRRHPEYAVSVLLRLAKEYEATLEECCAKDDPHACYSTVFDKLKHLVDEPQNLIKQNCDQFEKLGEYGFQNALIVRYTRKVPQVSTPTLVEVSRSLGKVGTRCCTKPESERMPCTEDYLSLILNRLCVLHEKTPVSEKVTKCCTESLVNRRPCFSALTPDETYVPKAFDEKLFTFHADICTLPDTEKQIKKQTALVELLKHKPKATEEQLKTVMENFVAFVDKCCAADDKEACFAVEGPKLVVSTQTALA
# T7 sequence (P49327 whole entry, the tested form may be a part): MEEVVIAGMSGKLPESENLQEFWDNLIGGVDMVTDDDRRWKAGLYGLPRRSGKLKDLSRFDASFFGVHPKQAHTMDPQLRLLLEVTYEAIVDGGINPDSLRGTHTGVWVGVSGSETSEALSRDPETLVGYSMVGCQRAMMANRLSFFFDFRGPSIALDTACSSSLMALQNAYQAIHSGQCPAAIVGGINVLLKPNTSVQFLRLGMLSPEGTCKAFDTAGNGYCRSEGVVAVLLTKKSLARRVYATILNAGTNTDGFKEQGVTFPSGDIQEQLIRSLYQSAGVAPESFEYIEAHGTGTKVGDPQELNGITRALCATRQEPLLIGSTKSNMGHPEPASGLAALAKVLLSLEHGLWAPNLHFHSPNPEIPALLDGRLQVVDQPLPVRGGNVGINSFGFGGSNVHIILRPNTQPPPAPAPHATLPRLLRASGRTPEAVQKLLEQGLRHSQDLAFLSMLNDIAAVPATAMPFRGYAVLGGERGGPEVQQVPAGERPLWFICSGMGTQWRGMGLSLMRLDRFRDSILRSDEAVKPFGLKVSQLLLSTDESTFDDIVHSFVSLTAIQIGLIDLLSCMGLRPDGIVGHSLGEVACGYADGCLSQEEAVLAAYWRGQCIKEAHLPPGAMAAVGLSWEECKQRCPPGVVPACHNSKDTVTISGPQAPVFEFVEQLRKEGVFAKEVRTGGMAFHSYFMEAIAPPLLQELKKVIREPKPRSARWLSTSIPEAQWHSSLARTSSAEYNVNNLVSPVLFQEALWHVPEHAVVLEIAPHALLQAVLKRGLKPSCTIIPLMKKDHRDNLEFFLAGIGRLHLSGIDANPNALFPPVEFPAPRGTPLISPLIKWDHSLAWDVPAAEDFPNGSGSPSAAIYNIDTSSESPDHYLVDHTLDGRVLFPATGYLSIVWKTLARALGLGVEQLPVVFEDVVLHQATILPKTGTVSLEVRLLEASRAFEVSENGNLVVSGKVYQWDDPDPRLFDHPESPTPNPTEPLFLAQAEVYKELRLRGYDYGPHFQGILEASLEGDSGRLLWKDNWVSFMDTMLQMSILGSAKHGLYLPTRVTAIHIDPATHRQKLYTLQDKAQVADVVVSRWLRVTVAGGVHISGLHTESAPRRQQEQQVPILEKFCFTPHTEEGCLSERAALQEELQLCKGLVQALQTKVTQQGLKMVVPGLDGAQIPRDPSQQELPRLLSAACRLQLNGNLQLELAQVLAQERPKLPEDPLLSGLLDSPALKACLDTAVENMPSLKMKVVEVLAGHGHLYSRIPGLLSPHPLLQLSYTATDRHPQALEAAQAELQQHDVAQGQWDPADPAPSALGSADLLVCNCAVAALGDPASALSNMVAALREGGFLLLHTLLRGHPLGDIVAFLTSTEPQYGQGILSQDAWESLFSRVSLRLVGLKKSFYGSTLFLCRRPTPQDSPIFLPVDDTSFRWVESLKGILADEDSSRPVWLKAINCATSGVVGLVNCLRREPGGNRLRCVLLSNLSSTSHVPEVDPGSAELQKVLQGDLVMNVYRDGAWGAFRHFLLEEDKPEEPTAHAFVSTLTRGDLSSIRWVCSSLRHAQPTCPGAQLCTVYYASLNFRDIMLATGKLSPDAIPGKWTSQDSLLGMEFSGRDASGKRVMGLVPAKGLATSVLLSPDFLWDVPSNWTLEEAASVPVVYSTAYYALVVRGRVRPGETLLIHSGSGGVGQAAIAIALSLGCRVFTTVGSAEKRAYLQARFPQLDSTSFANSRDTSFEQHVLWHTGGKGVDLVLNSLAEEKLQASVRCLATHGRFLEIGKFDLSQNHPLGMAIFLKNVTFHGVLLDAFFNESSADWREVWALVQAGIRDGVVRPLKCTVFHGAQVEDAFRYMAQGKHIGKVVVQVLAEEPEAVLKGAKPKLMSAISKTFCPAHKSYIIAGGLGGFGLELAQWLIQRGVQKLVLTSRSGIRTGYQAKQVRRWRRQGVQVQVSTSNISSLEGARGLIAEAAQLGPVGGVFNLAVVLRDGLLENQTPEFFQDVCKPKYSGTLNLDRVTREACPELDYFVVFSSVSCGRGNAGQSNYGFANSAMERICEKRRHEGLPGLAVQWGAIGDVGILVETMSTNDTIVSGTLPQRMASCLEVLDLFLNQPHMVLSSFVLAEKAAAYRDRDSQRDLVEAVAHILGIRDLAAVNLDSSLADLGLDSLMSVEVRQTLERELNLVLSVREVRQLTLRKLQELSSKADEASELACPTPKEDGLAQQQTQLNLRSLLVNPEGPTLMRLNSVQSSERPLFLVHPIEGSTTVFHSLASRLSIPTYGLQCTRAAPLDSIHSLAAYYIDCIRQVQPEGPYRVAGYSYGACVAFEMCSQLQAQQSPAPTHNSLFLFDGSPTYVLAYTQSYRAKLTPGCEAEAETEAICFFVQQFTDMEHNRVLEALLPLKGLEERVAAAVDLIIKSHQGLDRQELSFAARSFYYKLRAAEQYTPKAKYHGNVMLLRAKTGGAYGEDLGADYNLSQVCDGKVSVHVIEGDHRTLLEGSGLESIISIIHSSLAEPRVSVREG
# Paired box protein Pax-8, sequence (Q06710 whole entry): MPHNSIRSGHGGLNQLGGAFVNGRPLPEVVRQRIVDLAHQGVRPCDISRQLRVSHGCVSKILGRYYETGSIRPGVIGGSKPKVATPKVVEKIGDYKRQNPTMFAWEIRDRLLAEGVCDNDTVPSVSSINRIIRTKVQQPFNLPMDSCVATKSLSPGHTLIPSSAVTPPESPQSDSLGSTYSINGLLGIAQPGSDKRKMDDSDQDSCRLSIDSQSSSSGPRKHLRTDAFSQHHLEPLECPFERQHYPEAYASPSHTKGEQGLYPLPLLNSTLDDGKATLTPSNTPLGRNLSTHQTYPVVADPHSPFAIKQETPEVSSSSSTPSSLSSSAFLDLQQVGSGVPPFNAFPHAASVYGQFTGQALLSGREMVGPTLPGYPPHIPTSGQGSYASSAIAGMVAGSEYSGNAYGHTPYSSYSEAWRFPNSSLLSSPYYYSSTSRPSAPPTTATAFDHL
compound,measurement,setting,value
FC(F)(F)c1cc(Cl)c2nc(-c3ccccc3)cn2c1,IC50,Protein skinhead-1,> 100 µM (inactive)
same,EC50,[1],> 67.5 µM (inactive)
Cc1n[nH]c(C(F)(F)F)c1N=NN1CCOCC1,IC50,[2],15.5 µM (inactive)
same,CC50,Vero,6.78 µM (active)
C[C@H](CO)N1C[C@H](C)[C@H](CN(C)CC2CCCCC2)Oc2ccc(NC(=O)Nc3ccc(C(F)(F)F)cc3)cc2CC1=O,AC50,[3],2.72 µM (active)
COc1ccccc1/C=N\N=C(\N)c1ccccn1,EC50,[1],> 67.6 µM (inactive)
Oc1ccc(/N=C/c2sc3ccccc3c2Cl)cc1,AC50,[4],137 µM (active)
same,EC50,Protein RecA,> 380 µM (inactive)
same,IC50,[5],> 128 µM (inactive)
COc1ccc(CN(C)C[C@@H]2OCCCC[C@H](C)Oc3ccc(NC(=O)Nc4cccc5ccccc45)cc3C(=O)N([C@H](C)CO)C[C@H]2C)cc1,AC50,Paired box protein Pax-8,69.6 µM (active)
same,AC50,[6],> 70 µM (inactive)
COc1ccc(C#Cc2ccc([C@H]3[C@@H](CO)N4CCCCN(C(=O)Nc5ccccc5F)C[C@@H]34)cc2)cc1,AC50,[7],5.66 µM (active)
C[C@H]1CN([C@@H](C)CO)C(=O)c2cc(C#CC3CCCC3)cnc2O[C@H]1CN(C)C(=O)Cc1ccccn1,AC50,[8],21.3 µM (active)
CC(=O)c1cccc(NC(=O)C(OC(=O)c2cccc(S(=O)(=O)N(C)c3ccccc3)c2)c2ccccc2)c1 (centres undefined),IC50,Albumin,> 94.1 µM (inactive)
Cc1c(C=O)c2ccccc2n1Cc1ccc(F)cc1,CC50,[9],> 40 µM (active)
C/C=C/c1ccc([C@@H]2[C@@H](CO)N(C(=O)Cc3cccnc3)[C@H]2CNC(C)=O)cc1,AC50,[8],28.6 µM (active)
COC(=O)c1ccc(/N=N/N(C)COc2ccc([N+](=O)[O-])cc2)cc1,GI50,SN12K1,40.2 µM (inactive)
same,GI50,P388,37.7 µM (inactive)
same,GI50,P388/ADR,23.6 µM (inactive)
CCc1cc(C(=O)Nc2ncccc2O)sc1C,EC50,[1],> 67.5 µM (inactive)
same,AC50,HEK293,4.64 µM (active)
C[C@@H]1CN([C@@H](C)CO)C(=O)c2cccc(NC(=O)Nc3ccc(C(F)(F)F)cc3)c2O[C@H]1CN(C)Cc1ccc(Cl)c(Cl)c1,AC50,[3],0.919 µM (active)
O=C(N/N=C/c1cc([N+](=O)[O-])ccc1O)/C(=C\c1cccs1)NC(=O)c1ccccc1,EC50,[10],> 160 µM (inactive)
same,IC50,Albumin,> 94.1 µM (inactive)
same,IC50,Fatty acid synthase [11],13.8 µM (active)
same,EC50,[12],3.32 µM (active)
same,EC50,[13],0.76 µM (active)
same,EC50,Streptococcus,2.16 µM (active)
same,IC50,Fatty acid synthase [14],15.2 µM (active)
O=NN1C(c2ccccc2)CCCC1c1ccccc1 (centres undefined),GI50,SN12K1,> 63.5 µM (inactive)
same,GI50,P388,27.5 µM (inactive)
same,GI50,P388/ADR,31.8 µM (inactive)
CC(C)CNc1ncnc2c1ncn2[C@H]1CN(Cc2ccc(-c3ccccc3)cc2)C[C@@H](CO)O1,IC50,[2],9.84 µM (active)
C[C@@H]1CN([C@H](C)CO)C(=O)Cc2cc(NC(=O)Cc3cn(C)c4ccccc34)ccc2O[C@@H]1CN(C)Cc1ccc(Cl)c(Cl)c1,AC50,[3],5.18 µM (active)
